Laboratory results: ChEMBL document CHEMBL4739717, “Methods of treating cartilage disorders through inhibition of clk and dyrk” (2020)
The source made the active and inactive calls. The rule behind the calls is not given here.

Key:
[1] = Induction of chondrogenesis in human MSC assessed as incubated for 6 days by rhodamine B and Nile red staining based imaging analysis; type: functional; conditions: bmmsc
[2] = Induction of chondrogenesis in human MSC assessed as maximum activity at 1700 nM incubated for 6 days by rhodamine B and Nile red staining based imaging analysis relative to control; type: functional; conditions: BMMSC, 144 h, time 6 day
[3] = Effect on Wnt signaling pathway in human SW480 cells harbouring TCF/LEF luciferase reporter gene and SP5-Luc reporter gene incubated for 36 to 48 hrs by luminescence assay; type: cell-based
[4] = system: Chondrocyte; assay: Inhibition of IL1-beta induced MMP3 expression levels in human chondrocytes assessed as MMP3 levels incubated for 2hrs followed by IL1-beta stimulation and measured after 24 hrs by qRT-PCR analysis; type: functional; conditions: time 26.0 hrs
[5] = Inhibition of IL1-beta induced MMP3 expression levels in human chondrocytes assessed as MMP3 levels incubated for 2hrs followed by IL1-beta stimulation and measured after overnight incubation by LANCE assay; type: functional, cell-based; conditions: Chondrocyte
[6] = molecular target: Dual specificity tyrosine-phosphorylation-regulated kinase 1A (Homo sapiens, UniProt Q13627); assay: Inhibition of recombinant DYRK1A (unknown origin) using Ser/Thr 18 peptide as substrate incubated for 1 hr in presence of ATP by FRET assay
[7] = system: Chondrocyte; assay: Inhibition of IL1-beta induced MMP-13 expression levels in human chondrocytes assessed as MMP-13 levels incubated for 2hrs followed by IL1-beta stimulation and measured after 24 hrs by qRT-PCR analysis; type: functional; conditions: time 26.0 hrs
[8] = Induction of chondrogenesis in human MSC assessed as maximum activity at 900 nM incubated for 6 days by rhodamine B and Nile red staining based imaging analysis relative to control; type: functional; conditions: BMMSC, 144 h, time 6 day
[9] = Induction of chondrogenesis in human MSC assessed as maximum activity at 185.19 nM incubated for 6 days by rhodamine B and Nile red staining based imaging analysis relative to control; type: functional; conditions: BMMSC, 144 h, time 6 day
[10] = Induction of chondrogenesis in human MSC assessed as maximum activity at 5000 nM incubated for 6 days by rhodamine B and Nile red staining based imaging analysis relative to control; type: functional; conditions: BMMSC, 144 h, time 6 day
[11] = molecular target: Dual specificity protein kinase CLK2 (Homo sapiens, UniProt P49760); assay: Inhibition of recombinant CLK2 (unknown origin) using Ser/Thr 6 peptide as substrate incubated for 1 hr in presence of ATP by FRET assay
Chain of Dual specificity protein kinase CLK2 (P49760 whole entry): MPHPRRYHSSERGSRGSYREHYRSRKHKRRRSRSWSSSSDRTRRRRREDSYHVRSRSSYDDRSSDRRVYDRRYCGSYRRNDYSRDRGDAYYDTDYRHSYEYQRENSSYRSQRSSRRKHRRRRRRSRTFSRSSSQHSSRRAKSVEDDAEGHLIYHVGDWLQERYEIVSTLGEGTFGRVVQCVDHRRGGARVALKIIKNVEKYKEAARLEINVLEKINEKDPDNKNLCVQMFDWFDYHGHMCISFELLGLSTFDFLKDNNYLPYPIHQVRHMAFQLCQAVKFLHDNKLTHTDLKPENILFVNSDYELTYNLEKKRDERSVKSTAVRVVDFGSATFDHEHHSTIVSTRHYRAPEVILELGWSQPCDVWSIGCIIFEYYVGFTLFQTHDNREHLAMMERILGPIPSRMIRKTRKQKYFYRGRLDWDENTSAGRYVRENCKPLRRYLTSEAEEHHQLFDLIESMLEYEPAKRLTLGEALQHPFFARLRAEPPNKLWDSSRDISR

[12] = molecular target: Dual specificity protein kinase CLK3 (Homo sapiens, UniProt P49761); assay: Inhibition of recombinant CLK3 (unknown origin) using Ser/Thr 18 peptide as substrate incubated for 1 hr in presence of ATP by FRET assay
Chain of Dual specificity protein kinase CLK3 (P49761 whole entry): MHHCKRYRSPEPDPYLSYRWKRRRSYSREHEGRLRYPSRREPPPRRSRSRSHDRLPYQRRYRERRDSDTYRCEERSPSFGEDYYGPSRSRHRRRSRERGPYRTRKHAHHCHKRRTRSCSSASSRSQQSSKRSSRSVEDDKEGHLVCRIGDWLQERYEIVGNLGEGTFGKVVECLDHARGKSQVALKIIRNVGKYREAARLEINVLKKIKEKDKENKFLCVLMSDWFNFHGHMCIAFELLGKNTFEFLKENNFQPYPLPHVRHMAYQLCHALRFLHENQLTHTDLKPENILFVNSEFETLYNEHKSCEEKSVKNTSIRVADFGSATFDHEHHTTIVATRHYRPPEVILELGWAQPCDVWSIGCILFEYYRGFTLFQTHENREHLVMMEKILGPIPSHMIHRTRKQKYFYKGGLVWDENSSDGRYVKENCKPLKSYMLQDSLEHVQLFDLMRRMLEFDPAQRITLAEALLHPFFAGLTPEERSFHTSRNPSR

SMILES | EC50 [1] | EC50 [3] | EC50 [5] | EC50 [6] | EC50 [11] | EC50 [12] | Emax at 1.7 µM [2] | Activity [4] | Activity [7] | Emax at 0.9 µM [8] | Emax at 0.18519 µM [9] | Emax at 5 µM [10]
Fc1ccc(-c2nnc(-c3n[nH]cc3/C=C/c3cccnc3)o2)cc1 | – | 1510 nM | 3000 nM | 15 nM | – | – | – | inactive | inactive | 23.4% | – | –
CCCC(=O)Nc1cncc(-c2ccc3[nH]nc(-c4nc5c(-c6ccncc6)cncc5[nH]4)c3n2)c1 | – | 999 nM | – | 13 nM | – | – | – | – | – | – | 31% | –
CN1CCCCN(C)c2nccc3[nH]c(nc23)-c2c[nH]c3ccc(cc23)-c2cncc(c2)C1 | 5000 nM | 577 nM | – | 2 nM | 2 nM | 12 nM | – | – | – | – | – | 231%

Molecules with a lower EC50 [3], results first:

EC50 [1] | EC50 [3] | EC50 [5] | EC50 [6] | EC50 [11] | EC50 [12] | SMILES | Emax at 1.7 µM [2] | Activity [4] | Activity [7] | Emax at 0.9 µM [8] | Emax at 0.18519 µM [9] | Emax at 5 µM [10]
6.86 nM | 460 nM | – | 24 nM | – | – | Oc1cncc(-c2ccc3[nH]nc(-c4nc5c(-c6cccc(F)c6)nccc5[nH]4)c3n2)c1 | – | – | – | – | 56.7% | –
200 nM | 41.8 nM | – | – | – | – | c1cc2cc(c1)-c1cncc3[nH]c(nc13)-c1n[nH]c3ccc(cc13)-c1cncc(c1)CNC2 | 588% | – | – | – | – | –
